Results published in patent publication US5086045A, “Antitumor antibiotic” (Bristol-Myers Squibb Company, priority 1990, dated 1992).

Experiments:
[1] = system: P388 leukemia; assay: In vivo antitumor activity, P388 leukemia implanted ip, drug ip; design: species or system mouse
Experimental: (§1) The in vivo antitumor activity of BMY-41339 was determined in the standard P388 mouse leukemia model. A summary of the experiments performed using BMY-41339 is provided below.
(§2) DBA/2 and (Balb/c × DBA/2)F1 (CDF1) hybrid mice were purchased from Charles River Breeding Co. (Wilmington, MA). They were provided food and water ad libitum.
(§3) The P388 murine ascites leukemia was maintained by weekly in vivo passage in DBA/2 mice.
(§4) Esperamicin A1 and BMY-41339 were dissolved in ethanol. Further dilutions were made with 0.9% NaCl (saline) until the ethanol concentration (v/v) was 10%. All administrations were made, therefore, in a 10% ethanol in saline vehicle. For ip injections, the concentration of compound was adjusted according to the average initial body weight of each group of mice to be injected such that the desired dose would be contained in a 0.5 ml injection volume. The same procedure was used for iv compound administration except the injection volume was 0.2 ml.
(§5) Antitumor experiments were initiated by implanting […] P388 leukemia cells either ip or iv into CDF1 mice. BMY-41339 and esperamicin A1 (included as a positive reference compound), were injected either ip in mice implanted ip with P388, or iv in mice implanted iv with P388 on Day 2 post-implant only Eight different dose levels of BMY-41339, at two-fold increments, were evaluated in each of the two experiments performed.
(§6) A % T/C value of ≥ 125 was considered indicative of activity in these models.

[2] = system: P388 leukemia; assay: In vivo antitumor activity, P388 leukemia implanted iv, drug iv; design: species or system mouse;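 on % T/C: median survival time of treated over control mice times 100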;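 on T/C: median survival time of treated over control mice times 100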
Experimental: as §1, §2, §3, §4, §5, §6

[3] = Exp. 8102, iv, 0.025 mg/kg/dose
[4] = Exp. 8102, iv, same doses up to 3.2 μg/kg
[5] = Exp. 8109, iv, 0.025 mg/kg/dose

C=C(OC)C(=O)Nc1cc(OC)c(OC)cc1C(=O)OC1CC(OC2C(=O)C(NC(=O)OC)=C3C(=CCSSSSC)C2(O)C#CC=CC#CC3OC2OC(C)C(NOC3CC(O)C(SC)C(C)O3)C(O)C2OC2CC(OC)C(NC(C)C)CO2)OC(C)C1O (stereo not drawn) [BMY-41339]
Survivors on Day 5 ([1]; Exp. 8109, ip, 0.8 mg/kg/dose): 6/6 | % T/C ([1]; Exp. 8109, ip, 1.6 mg/kg/dose): 145% | Avg. wt. change on day 6 ([1]; Exp. 8109, ip, 1.6 mg/kg/dose): -0.1 grams | Survivors on Day 5 ([1]; Exp. 8109, ip, 1.6 mg/kg/dose): 6/6 | % T/C ([1]; Exp. 8109, ip, 3.2 mg/kg/dose): 140% | Avg. wt. change on day 6 ([1]; Exp. 8109, ip, 3.2 mg/kg/dose): 0.7 grams | Survivors on Day 5 ([1]; Exp. 8109, ip, 3.2 mg/kg/dose): 6/6 | increases in lifespan ([1]; Exp. 8109, ip, 0.5 -32 μg/kg): active increases | activity against P388 leukemia ([1]; conclusion, confirmed experimental results): active against P388 leukemia | % T/C [2, 3]: 100% | Avg. wt. change on day 6 [2, 3]: 0.4 grams | Survivors on Day 5 [2, 3]: 6/6 | % T/C ([2]; Exp. 8102, iv, 0.05 mg/kg/dose): 100% | Avg. wt. change on day 6 ([2]; Exp. 8102, iv, 0.05 mg/kg/dose): 0.1 grams | Survivors on Day 5 ([2]; Exp. 8102, iv, 0.05 mg/kg/dose): 6/6 | % T/C ([2]; Exp. 8102, iv, 0.1 mg/kg/dose): 106% | Avg. wt. change on day 6 ([2]; Exp. 8102, iv, 0.1 mg/kg/dose): 0.4 grams | Survivors on Day 5 ([2]; Exp. 8102, iv, 0.1 mg/kg/dose): 6/6 | % T/C ([2]; Exp. 8102, iv, 0.2 mg/kg/dose): 100% | Avg. wt. change on day 6 ([2]; Exp. 8102, iv, 0.2 mg/kg/dose): -0.3 grams | Survivors on Day 5 ([2]; Exp. 8102, iv, 0.2 mg/kg/dose): 6/6 | % T/C ([2]; Exp. 8102, iv, 0.4 mg/kg/dose): 100% | Avg. wt. change on day 6 ([2]; Exp. 8102, iv, 0.4 mg/kg/dose): -0.4 grams | Survivors on Day 5 ([2]; Exp. 8102, iv, 0.4 mg/kg/dose): 6/6 | % T/C ([2]; Exp. 8102, iv, 0.8 mg/kg/dose): 100% | Avg. wt. change on day 6 ([2]; Exp. 8102, iv, 0.8 mg/kg/dose): -0.3 grams | Survivors on Day 5 ([2]; Exp. 8102, iv, 0.8 mg/kg/dose): 6/6 | % T/C ([2]; Exp. 8102, iv, 1.6 mg/kg/dose): 100% | Avg. wt. change on day 6 ([2]; Exp. 8102, iv, 1.6 mg/kg/dose): -0.1 grams | Survivors on Day 5 ([2]; Exp. 8102, iv, 1.6 mg/kg/dose): 6/6 | % T/C ([2]; Exp. 8102, iv, 3.2 mg/kg/dose): 113% | Avg. wt. change on day 6 ([2]; Exp. 8102, iv, 3.2 mg/kg/dose): -0.2 grams | Survivors on Day 5 ([2]; Exp. 8102, iv, 3.2 mg/kg/dose): 6/6 | effectiveness versus iv-implanted leukemia [2, 4]: not effective | maximum tolerated dose reached [2, 4]: no indication of having reached a maximum tolerated dose | T/C ([2]; Exp. 8109, iv, 16 μg/kg): 139% | % T/C [2, 5]: 100% | Avg. wt. change on day 6 [2, 5]: 0.4 grams | Survivors on Day 5 [2, 5]: 6/6 | T/C ([2]; Exp. 8109, iv, 32 μg/kg): 156% | % T/C ([2]; Exp. 8109, iv, 0.05 mg/kg/dose): 100% | Avg. wt. change on day 6 ([2]; Exp. 8109, iv, 0.05 mg/kg/dose): 0.1 grams | Survivors on Day 5 ([2]; Exp. 8109, iv, 0.05 mg/kg/dose): 6/6 | % T/C ([2]; Exp. 8109, iv, 0.1 mg/kg/dose): 106% | Avg. wt. change on day 6 ([2]; Exp. 8109, iv, 0.1 mg/kg/dose): 0.4 grams | Survivors on Day 5 ([2]; Exp. 8109, iv, 0.1 mg/kg/dose): 6/6 | % T/C ([2]; Exp. 8109, iv, 0.2 mg/kg/dose): 100% | Avg. wt. change on day 6 ([2]; Exp. 8109, iv, 0.2 mg/kg/dose): -0.3 grams | Survivors on Day 5 ([2]; Exp. 8109, iv, 0.2 mg/kg/dose): 6/6 | % T/C ([2]; Exp. 8109, iv, 0.4 mg/kg/dose): 100% | Avg. wt. change on day 6 ([2]; Exp. 8109, iv, 0.4 mg/kg/dose): -0.4 grams | Survivors on Day 5 ([2]; Exp. 8109, iv, 0.4 mg/kg/dose): 6/6 | % T/C ([2]; Exp. 8109, iv, 0.8 mg/kg/dose): 100% | Avg. wt. change on day 6 ([2]; Exp. 8109, iv, 0.8 mg/kg/dose): -0.3 grams | Survivors on Day 5 ([2]; Exp. 8109, iv, 0.8 mg/kg/dose): 6/6 | % T/C ([2]; Exp. 8109, iv, 1.6 mg/kg/dose): 100% | Avg. wt. change on day 6 ([2]; Exp. 8109, iv, 1.6 mg/kg/dose): -0.1 grams | Survivors on Day 5 ([2]; Exp. 8109, iv, 1.6 mg/kg/dose): 6/6 | % T/C ([2]; Exp. 8109, iv, 3.2 mg/kg/dose): 113% | Avg. wt. change on day 6 ([2]; Exp. 8109, iv, 3.2 mg/kg/dose): -0.2 grams | Survivors on Day 5 ([2]; Exp. 8109, iv, 3.2 mg/kg/dose): 6/6 | increases in lifespan ([2]; Exp. 8109, iv, at two dose levels evaluated): active increases | activity against disseminated iv implanted P388 leukemia ([2]; conclusion, when adequate dosage was administered): active against the disseminated iv implanted P388 leukemia model
